Measurements from US8853185B2, “Coferons and methods of making and using them” (Cornell University, priority 2008, dated 2014).

Tests used:
MEK1 = MEK1 (Homo sapiens, UniProt Q02750); settings: read-out: DISSOCIATION CONSTANT (Kd); cited from earlier work
CaMKII = settings: read-out: DISSOCIATION CONSTANT (Kd); cited from earlier work
CDK2 = CDK2 (Homo sapiens, UniProt P24941); settings: read-out: DISSOCIATION CONSTANT (Kd); cited from earlier work
[1] = Dimerization of linker element precursors in aqueous solution by MS and MS/MS; type: physicochemical
Description: The ability of precursors to linker elements to form dimers in aqueous solutions was determined by mass spectrometry (MS) and mass spectrometry/mass spectrometry (MS/MS). Linker elements that form dimers (or multimers) only as a result of the ionization during mass spectrometry can be distinguished from those that truly form dimers in aqueous solution by determination of the fragmentation during mass spectrometry/mass spectrometry.

MEK2 = MEK2 (Homo sapiens, UniProt P36507); settings: read-out: DISSOCIATION CONSTANT (Kd); cited from earlier work
ERK = settings: read-out: DISSOCIATION CONSTANT (Kd); cited from earlier work
Bcl-xL = Bcl-xL (Homo sapiens, UniProt Q07817); settings: read-out: DISSOCIATION CONSTANT (Kd); cited from earlier work
Sequence of Bcl-xL (Q07817 whole entry, species assumed): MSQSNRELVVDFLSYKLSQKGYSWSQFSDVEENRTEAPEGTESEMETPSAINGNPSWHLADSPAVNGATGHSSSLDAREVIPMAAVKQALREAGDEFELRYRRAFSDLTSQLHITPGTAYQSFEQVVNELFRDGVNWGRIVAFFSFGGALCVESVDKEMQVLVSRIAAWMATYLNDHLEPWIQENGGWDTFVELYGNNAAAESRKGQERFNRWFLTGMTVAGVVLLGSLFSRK

β CATENIN = molecular target: T1, β CATENIN (Homo sapiens, UniProt P35222); settings: read-out: DISSOCIATION CONSTANT (Kd); cited from earlier work
T1 sequence (P35222 1-781): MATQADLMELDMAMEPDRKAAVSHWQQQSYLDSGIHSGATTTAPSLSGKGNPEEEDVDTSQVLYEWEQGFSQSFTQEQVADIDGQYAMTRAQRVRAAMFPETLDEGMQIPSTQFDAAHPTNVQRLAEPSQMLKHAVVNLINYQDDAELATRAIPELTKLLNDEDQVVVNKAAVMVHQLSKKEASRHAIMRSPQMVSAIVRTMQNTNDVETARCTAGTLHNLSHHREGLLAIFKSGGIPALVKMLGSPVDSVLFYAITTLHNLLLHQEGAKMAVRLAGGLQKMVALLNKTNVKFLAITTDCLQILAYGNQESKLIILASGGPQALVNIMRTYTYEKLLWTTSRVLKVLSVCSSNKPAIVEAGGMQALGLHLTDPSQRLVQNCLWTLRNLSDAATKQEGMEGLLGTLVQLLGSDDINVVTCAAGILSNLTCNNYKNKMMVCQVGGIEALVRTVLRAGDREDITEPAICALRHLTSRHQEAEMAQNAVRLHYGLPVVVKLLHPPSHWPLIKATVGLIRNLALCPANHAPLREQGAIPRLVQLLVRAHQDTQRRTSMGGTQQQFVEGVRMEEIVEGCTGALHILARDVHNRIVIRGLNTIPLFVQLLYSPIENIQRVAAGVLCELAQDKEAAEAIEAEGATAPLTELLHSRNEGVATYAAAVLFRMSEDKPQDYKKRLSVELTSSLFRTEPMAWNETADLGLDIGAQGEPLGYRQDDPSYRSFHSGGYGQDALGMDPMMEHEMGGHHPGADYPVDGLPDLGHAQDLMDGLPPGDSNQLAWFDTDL

[2] = piperidin-2-ylmethanol with cyclohexylboronic acid
[3] = self-dimerization, MS and MS/MS

Q: With ERK1: binding partner of MEK1 as the compound, how does the Kd (MEK1) read?
A: Its Kd is 29 µM.

Q: For Calmodulin, which Kd (CaMKII) is on record?
A: Its Kd is 0.03 µM.

Q: With `Nc1ncnc2c1ncn2[C@@H]1O[C@H](COP(=O)(O)OP(=O)(O)OP(=O)(O)O)[C@@H](O)[C@H]1O` [ATP] as the compound, how does the Kd (CDK2) read?
A: The Kd was 0.227 µM.

Q: With `OCC1CCCCN1` (stereo not shown) [piperidin-2-ylmethanol] as the compound, how does the “ability to form dimers in aqueous solution” value (“ability to form dimers” below) [1, 2] read?
A: The value was “form a dimer”.

Q: With ERK2: binding partner of MEK2 as the compound, how does the Kd (MEK2) read?
A: Its Kd is 9 µM.

Q: For `OB(O)C1CCCCC1` [cyclohexylboronic acid], which “ability to form dimers” value [1, 2] is on record?
A: Its value is “form a dimer”.

Q: For `Cc1occc(=O)c1O` [3-hydroxy-2-methyl-4H-pyran-4-one], which “ability to form dimers” value ([1]; with zinc acetate, 2 molecules co-ordinating one Zn cation, MS/MS) is on record?
A: Its value is “form a dimer”.

Q: Which Kd (ERK) does the source give for MEK1: binding partner of ERK here?
A: Its Kd is 0.61 µM.

Q: For `O=C(CO)CO` [1,3-dihydroxyacetone], which “ability to form dimers” value [1, 3] is on record?
A: Its value is “exists mostly as the monomer”.

Q: Which Kd (CDK2) does the source give for `Nc1ncnc2c1ncn2[C@@H]1O[C@H](COP(=O)(O)OP(=O)(O)O)[C@@H](O)[C@H]1O` [ADP] here?
A: Its Kd is 2.7 µM.

Q: For cytochrome c: binding partner of Bcl-xL, which Kd (Bcl-xL) is on record?
A: The Kd was 0.12 µM.

Q: Which Kd (β CATENIN) does the source give for APC: binding partner of β CATENIN here?
A: Its Kd is 310 µM.

Q: For `O=C1CCCCC1O` (stereo not shown) [2-hydroxycyclohexanone], which “ability to form dimers” value [1, 3] is on record?
A: The value was “forms a dimer”.
